Experimental data as given in ChEMBL document CHEMBL4425185, “Efforts towards the optimization of a bi-aryl class of potent IRAK4 inhibitors” (Bioorg Med Chem Lett, 2016).

Columns and labels:
[1] = Clearance in rat; assay type: ADME; details: in vivo
[2] = target: T1, Interleukin-1 receptor-associated kinase 4 (Homo sapiens, UniProt Q9NWZ3); test: Inhibition of human recombinant N-terminal GST-tagged full-length IRAK4 expressed in baculovirus infected Sf9 insect cells using 5FAM-RKRQGSVRRRVH-COOH as substrate in presence of ATP by IMAP fluorescence polarization assay
T1 sequence (Q9NWZ3 whole entry): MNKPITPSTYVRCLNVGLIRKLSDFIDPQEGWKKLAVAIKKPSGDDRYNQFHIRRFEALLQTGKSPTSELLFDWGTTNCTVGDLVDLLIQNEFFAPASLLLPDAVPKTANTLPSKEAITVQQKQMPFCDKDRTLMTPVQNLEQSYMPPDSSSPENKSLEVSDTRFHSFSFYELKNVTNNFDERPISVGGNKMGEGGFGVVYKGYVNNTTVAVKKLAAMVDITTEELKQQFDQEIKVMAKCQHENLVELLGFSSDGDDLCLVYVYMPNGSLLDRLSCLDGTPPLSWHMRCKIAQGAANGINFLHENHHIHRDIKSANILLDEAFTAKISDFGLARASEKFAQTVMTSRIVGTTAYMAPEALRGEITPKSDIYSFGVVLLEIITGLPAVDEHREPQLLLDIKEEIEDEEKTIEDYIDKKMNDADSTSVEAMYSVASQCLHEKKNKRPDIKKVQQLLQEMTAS

[3] = Apparent permeability in dog MDCK2-MDR1 cells; assay type: ADME, cell-based, Canis lupus familiaris; details: MDCK-MDR1
[4] = target: T2, Interleukin-1 receptor-associated kinase 4 (Homo sapiens) (UniProt Q9NWZ3); test: Ratio of IC50 for IRAK4 inhibition in human THP1-XBlue cells to IC50 for inhibition of human IRAK4; assay type: cell-based
T2 sequence (whole entry): T1 sequence (Q9NWZ3 whole entry)

[5] = target: T1, Interleukin-1 receptor-associated kinase 4; test: Inhibition of […] IRAK4 in human THP1-XBlue cells assessed as decrease in NF-kappaB level preincubated for 1 hr followed by stimulation with LPS for 4 to 5 hrs measured after 30 mins by spectrophotometric analysis; assay type: cell-based
[6] = target: Voltage-gated inwardly rectifying potassium channel KCNH2 (Homo sapiens, UniProt Q12809); test: Inhibition of MK499 binding to human ERG
[7] = Clearance in rat at 2 mg/kg, iv; assay type: ADME, organism-based; details: in vivo
[8] = Clearance in rat at 1.45 mg/kg, iv; assay type: ADME, organism-based; details: in vivo
[9] = Clearance in rat at 0.15 mg/kg, iv; assay type: ADME, organism-based; details: in vivo
[10] = test system: Cytochrome P450; test: Inhibition of CYP450 (unknown origin); assay type: ADME, protein assay; details: human
[11] = species on record: Homo sapiens; test: Selectivity for human IRAK4 over GST-tagged human MINK1
[12] = species on record: Homo sapiens; test: Selectivity for human IRAK4 over human LRRK2
[13] = test system: Cytochrome P450; test: Induction of CYP450 (unknown origin); assay type: ADME; details: human
[14] = test system: MDR1; test: Efflux ratio of permeability in dog MDCK2-MDR1 cells; assay type: ADME, cell-based, Canis lupus familiaris; details: MDCK-MDR1

Chain of Voltage-gated inwardly rectifying potassium channel KCNH2 (Q12809 whole entry): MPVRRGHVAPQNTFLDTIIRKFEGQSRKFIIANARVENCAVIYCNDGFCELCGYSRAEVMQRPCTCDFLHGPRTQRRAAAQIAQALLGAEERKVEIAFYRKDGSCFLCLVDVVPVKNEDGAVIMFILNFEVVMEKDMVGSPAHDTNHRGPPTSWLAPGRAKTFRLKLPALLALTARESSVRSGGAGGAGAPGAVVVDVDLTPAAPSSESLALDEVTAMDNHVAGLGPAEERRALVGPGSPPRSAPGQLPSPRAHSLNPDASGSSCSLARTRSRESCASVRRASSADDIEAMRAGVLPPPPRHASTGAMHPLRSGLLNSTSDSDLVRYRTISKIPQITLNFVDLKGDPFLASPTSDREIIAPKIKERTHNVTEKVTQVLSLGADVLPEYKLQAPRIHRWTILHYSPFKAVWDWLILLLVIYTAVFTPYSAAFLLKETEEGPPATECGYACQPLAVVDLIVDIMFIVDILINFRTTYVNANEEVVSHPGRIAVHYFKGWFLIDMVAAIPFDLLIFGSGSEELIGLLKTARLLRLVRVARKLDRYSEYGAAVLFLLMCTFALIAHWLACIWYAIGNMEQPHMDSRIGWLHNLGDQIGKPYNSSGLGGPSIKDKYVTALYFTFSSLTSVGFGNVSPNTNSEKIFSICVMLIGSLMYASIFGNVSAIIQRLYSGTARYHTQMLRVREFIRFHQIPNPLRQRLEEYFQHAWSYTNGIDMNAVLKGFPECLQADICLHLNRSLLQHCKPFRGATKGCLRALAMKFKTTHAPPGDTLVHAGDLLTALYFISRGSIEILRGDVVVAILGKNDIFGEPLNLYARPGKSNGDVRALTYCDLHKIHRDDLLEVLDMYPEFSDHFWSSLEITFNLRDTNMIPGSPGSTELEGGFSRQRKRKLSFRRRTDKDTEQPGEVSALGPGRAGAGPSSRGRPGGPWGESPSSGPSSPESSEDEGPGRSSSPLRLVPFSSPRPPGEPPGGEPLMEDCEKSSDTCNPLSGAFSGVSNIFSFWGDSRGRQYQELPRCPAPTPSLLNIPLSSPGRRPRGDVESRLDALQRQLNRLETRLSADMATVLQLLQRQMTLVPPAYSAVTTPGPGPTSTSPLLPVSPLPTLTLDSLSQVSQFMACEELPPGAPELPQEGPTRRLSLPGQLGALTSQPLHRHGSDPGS

| clearance [1] [mL/min/kg] | IC50 [2] [nM] | Ratio IC50 [4] | IC50 [5] [nM] | SMILES | IC50 [6] [nM] | further results |
| --- | --- | --- | --- | --- | --- | --- |
| – | 401 | – | – | Cn1cc(NC(=O)c2cccc(-c3ccsc3)n2)c(C(N)=O)n1 | – | – |
| 37 | – | < 3 | 533 | CN(C)[C@H]1CN(C(=O)c2nn(C)cc2NC(=O)c2cccc(-c3ccnc(NCC4CC4)c3)n2)C[C@@H]1O | > 60000 | Papp [3]: 11 ×10⁻⁶ cm/s |
| 24 | – | < 3 | 259 | Cn1cc(NC(=O)c2cccc(-c3ccnc(N)c3)n2)c(C(N)=O)n1 | 25000 | Papp [3]: 23 ×10⁻⁶ cm/s; clearance [7]: 69 mL/min/kg |
| – | 683 | – | – | Cn1cc(NC(=O)c2cccc(-c3cnccc3Cl)n2)c(C(N)=O)n1 | – | – |
| – | > 5000 | – | – | Cn1cc(NC(=O)c2cccc(-c3ccnc(NCC4CC4)c3)n2)c(C(=O)NCc2ccncc2)n1 | – | – |
| 53 | 36 | < 3 | 138 | Cn1cc(-c2cccc(C(=O)Nc3cn(C)nc3C(N)=O)n2)cn1 | > 60000 | Papp [3]: 29 ×10⁻⁶ cm/s; clearance [9]: 53 mL/min/kg; inhibition (INH) [10]: Not Active; Selectivity ratio [11]: < 10; Selectivity ratio [12]: < 10; Activity [13]: Not Active; efflux ratio [14]: 0.5 |
| 6 | – | < 3 | 477 | Cn1cc(NC(=O)c2cccc(-c3ccnc(NCC4CC4)c3)n2)c(C(=O)N2CC(CN)C2)n1 | 40000 | – |
| 53 | – | – | – | Cn1cc(NC(=O)c2cncc(-c3ccnc(NCC4CC4)c3)c2)c(C(N)=O)n1 | 5200 | clearance [8]: 31 mL/min/kg |
| – | > 5000 | – | – | Cn1cc(NC(=O)c2cccc(-c3ccnc(NCC4CC4)c3)n2)c(C(=O)NC2CCCC2)n1 | – | – |
| 17 | – | < 3 | 169 | Cn1cc(NC(=O)c2cccc(-c3ccnc(NCC4CC4)c3)n2)c(C(N)=O)n1 | 2900 | Papp [3]: 18 ×10⁻⁶ cm/s; clearance [7]: 33 mL/min/kg; inhibition (INH) [10]: Not Active; Selectivity ratio [11]: < 10; Selectivity ratio [12]: < 10; Activity [13]: Not Active; efflux ratio [14]: 0.3 |
| 43 | – | – | – | Cn1cc(NC(=O)c2ccnc(-c3ccnc(NCC4CC4)c3)n2)c(C(N)=O)n1 | 1900 | – |
| – | – | < 3 | 294 | Cn1cc(NC(=O)c2cccc(-c3ccnc(NCC(F)(F)F)c3)n2)c(C(N)=O)n1 | – | – |

Continued, molecule first:

| SMILES | clearance [1] [mL/min/kg] | IC50 [2] [nM] | Ratio IC50 [4] | IC50 [5] [nM] | IC50 [6] [nM] | further results |
| --- | --- | --- | --- | --- | --- | --- |
| Cn1cc(NC(=O)c2cccc(-c3cccnc3)n2)c(C(N)=O)n1 | 54 | – | – | – | – | – |
| Cn1cc(NC(=O)c2cccc(-c3ccnc(NCC4CC4)c3)n2)c(C(=O)NCc2ccccc2)n1 | – | > 5000 | – | – | – | – |
| Cn1cc(NC(=O)c2cccc(-c3ccc(C4CC4)nc3)n2)c(C(N)=O)n1 | 30 | 121 | < 3 | 307 | > 60000 | – |
| Cn1cc(NC(=O)c2cccc(-c3ccnc(NCC4CC4)c3)c2)c(C(N)=O)n1 | 25 | 187 | < 3 | 428 | 6100 | clearance [8]: 32 mL/min/kg |
| Cn1cc(NC(=O)c2cc(-c3ccnc(NCC4CC4)c3)ccn2)c(C(N)=O)n1 | – | > 5000 | – | – | – | – |
| CN1CCCC(CNC(=O)c2nn(C)cc2NC(=O)c2cccc(-c3ccnc(NCC4CC4)c3)n2)C1 (stereo not given) | 21 | – | – | – | 12000 | – |
| Cn1cc(NC(=O)c2cccc(-c3ccccc3)n2)c(C(N)=O)n1 | – | 3650 | – | – | – | – |
| CC(C)CNC(=O)c1nn(C)cc1NC(=O)c1cccc(-c2ccnc(NCC3CC3)c2)n1 | – | > 5000 | – | – | – | – |
| Cn1cc(NC(=O)c2cccc(-c3ccnc(NCC4CC4)c3)n2)c(C(=O)N2CCC(O)C2)n1 (stereo not given) | – | > 5000 | – | – | – | – |
| Cn1cc(NC(=O)c2cnn3ccc(N4CCNCC4)nc23)c(C(N)=O)n1 | 3 | 38 | < 3 | 150 | > 60000 | Papp [3]: 1.6 ×10⁻⁶ cm/s; clearance [9]: 39 mL/min/kg; inhibition (INH) [10]: Not Active; Selectivity ratio [11]: < 10; Selectivity ratio [12]: < 10; Activity [13]: Not Active; efflux ratio [14]: 1 |
| CN(C)CCCNC(=O)c1nn(C)cc1NC(=O)c1cccc(-c2ccnc(NCC3CC3)c2)n1 | – | 542 | – | – | – | – |
| Cn1cc(NC(=O)c2cccc(-c3ccnc(NCC4CC4)c3)n2)c(C(=O)NCc2ncc[nH]2)n1 | – | 1610 | – | – | – | – |
| Cn1cc(NC(=O)c2cccc(-c3cncc(Cl)c3)n2)c(C(N)=O)n1 | – | 106 | < 3 | 202 | – | – |
